For 3 compounds, MIC results are on record in DBAASP.

Test in all cases: ≥ marks a high value that may be exact or a test limit, other limits are often not marked, values filed in µg/mL are converted to µM
Assay [1] concerns Candida albicans ATCC 10231.
Assay [2] has as its system Candida albicans ATCC 90028.
For assay [3], the system named is Cutibacterium acnes ATCC 11828.
Assay [4] relates to Cutibacterium acnes ATCC 15725.
Assay [5] has as its system Cutibacterium acnes ATCC 18380.
For assay [6], the system named is Cutibacterium acnes ATCC 29903.
Assay [7] deals with Cutibacterium acnes ATCC 31766.
The subject of assay [8] is Cutibacterium acnes ATCC 32548.
The test system of assay [9] is Cutibacterium acnes ATCC 33257.
Assay [10] has as its system Cutibacterium acnes ATCC 50247.
The test system of assay [11] is Enterococcus faecalis NCTC 12697.
The subject of assay [12] is Escherichia coli ATCC 25726.
In assay [13] the test system is Escherichia coli ATCC 8739.
Assay [14] concerns Escherichia coli ATCC BAA-2340.
Assay [15] deals with Klebsiella pneumoniae ATCC 43816.
The subject of assay [16] is Klebsiella pneumoniae ATCC BAA-1705.
The subject of assay [17] is Pseudomonas aeruginosa ATCC 9027.
The subject of assay [18] is Pseudomonas aeruginosa B004 V2S2B.
Assay [19] deals with Staphylococcus aureus ATCC 25923.
The subject of assay [20] is Staphylococcus aureus ATCC 6538.
The test system of assay [21] is Staphylococcus aureus NCTC 12493.
In assay [22] the test system is Staphylococcus aureus.
Assay [23] relates to Acinetobacter baumannii ATCC 19606.
Assay [24] concerns Bacillus megaterium.
Assay [25] has as its system Enterococcus faecalis ATCC 29212.
Assay [26] has as its system Escherichia coli ATCC 25922.
Assay [27] relates to Escherichia coli ATCC 35218.
Assay [28] relates to Escherichia coli ML-35p.
The test system of assay [29] is Helicobacter pylori.
For assay [30], the system named is Klebsiella pneumoniae ATCC 13883.
Assay [31] has as its system Legionella feeleii ATCC 35072.
Assay [32] concerns Legionella longbeachae ATCC 33484.
Assay [33] relates to Legionella pneumophila ATCC 33155.
The test system of assay [34] is Legionella pneumophila Paris.
Assay [35] concerns Listeria ivanovii.
The subject of assay [36] is Pseudomonas aeruginosa ATCC 27853.
Assay [37] has as its system Saccharomyces cerevisiae.
In assay [38] the test system is Salmonella enterica subsp. enterica serovar Enteritidis.
The subject of assay [39] is Staphylococcus aureus ATCC 43300.
Assay [40] has as its system Staphylococcus aureus ATCC BAA-44.
Assay [41] concerns Staphylococcus aureus ST1065.
Assay [42] concerns Streptococcus pyogenes ATCC 19615.
The subject of assay [43] is Acinetobacter baumannii ATCC 17978.
Assay [44] deals with Acinetobacter baumannii AYE.
The test system of assay [45] is Escherichia coli LEC001.
The subject of assay [46] is Escherichia coli NCTC 12923.
In assay [47] the test system is Escherichia coli.
Assay [48] relates to Klebsiella pneumoniae M6.
Assay [49] relates to Klebsiella pneumoniae NCTC 13368.
For assay [50], the system named is Pseudomonas aeruginosa NCTC 13437.
Assay [51] relates to Pseudomonas aeruginosa PAO1.
Assay [52] concerns Staphylococcus aureus ATCC 9144.
For assay [53], the system named is Staphylococcus aureus NCTC 13616.
Assay [54] deals with Staphylococcus aureus USA 300.

In brackets after ≈: the same amount, converted by molar mass. Several values for one entry are separate records, joined by “and”; a condition that tells them apart may be missing. Equal values may be shown once.

As to `CC[C@H](C)[C@H](NC(=O)[C@@H](NC(=O)CN)C(C)C)C(=O)N[C@H](C(=O)N[C@@H](CC(=O)O)C(=O)N[C@H](C(=O)N[C@@H](CC(C)C)C(=O)N[C@@H](CCCCN)C(=O)NCC(=O)N[C@@H](C)C(=O)N[C@@H](C)C(=O)N[C@@H](CCCCN)C(=O)N[C@H](C(=O)N[C@H](C(=O)N[C@@H](C)C(=O)N[C@@H](C)C(=O)N[C@@H](CCC(=O)O)C(=O)N[C@@H](CC(C)C)C(=O)N[C@@H](CC(C)C)C(=O)N[C@@H](CCCN=C(N)N)C(=O)N[C@@H](CCCCN)C(=O)N[C@@H](C)C(=O)N[C@@H](Cc1cnc[nH]1)C(=O)N[C@H]1CSSC[C@@H](C(=O)O)NC(=O)[C@H](CO)NC(=O)[C@H](CC(N)=O)NC(=O)[C@H]([C@@H](C)O)NC(=O)[C@H](CC(C)C)NC(=O)[C@H](CCCCN)NC1=O)C(C)C)[C@@H](C)O)[C@@H](C)O)[C@@H](C)CC` [GVIIDTLKGAAKTVAAELLRKAHCKLTNSC], the MIC in assay [1] was greater than 512 µM; in assay [2], no less than 64 µM; in assay [3], 12.5 µM (≈ 39 µg/mL); in [4], 25 µM (≈ 78.1 µg/mL); in assay [5] it was 12.5 µM (≈ 39 µg/mL); in assay [6], 25 µM (≈ 78.1 µg/mL). In addition, the MIC in assay [7] is 6 µM (≈ 18.7 µg/mL); in [8], 25 µM (≈ 78.1 µg/mL); in assay [9], 6 µM (≈ 18.7 µg/mL); in [10], 6 µM (≈ 18.7 µg/mL); in assay [11], no less than 512 µM; in assay [12] it was no less than 32 µM. The MIC in [13] was 16 µM (≈ 50 µg/mL); in [14] it was no less than 32 µM; in [15] it was no less than 128 µM; in assay [16], no less than 512 µM; in assay [17], 128 µM (≈ 400 µg/mL); in assay [18] it was no less than 512 µM. Besides, the MIC was 64 µM (≈ 200 µg/mL) in assay [19], 32 µM (≈ 100 µg/mL) in assay [20], no less than 512 µM in assay [21] and greater than 512 µM in assay [22].
Consider `CC[C@H](C)[C@H](NC(=O)CNC(=O)[C@H](CO)NC(=O)[C@H](CC(C)C)NC(=O)[C@@H](N)Cc1ccccc1)C(=O)N[C@H](C(=O)NCC(=O)N[C@@H](CCSC)C(=O)N[C@@H](CC(C)C)C(=O)NCC(=O)N[C@@H](CCCCN)C(=O)N[C@@H](CC(C)C)C(=O)N[C@@H](Cc1ccccc1)C(=O)O)C(C)C` [FLSGIVGMLGKLF], for which the MIC was 6 µM (≈ 8.29 µg/mL) in [23]; 2 µM (≈ 2.76 µg/mL) in assay [24]; 16 µM and 25 µM in [2]; 11 µM (≈ 15.1 µg/mL) in [25]; 10 µM (≈ 13.8 µg/mL) in assay [26]; 10 µM (≈ 13.8 µg/mL) in assay [27]. Besides, the MIC in [28] turned out to be 12 µM (≈ 16.6 µg/mL); in assay [29], 17.7 µM (≈ 24.4 µg/mL); in assay [30], 12 µM (≈ 16.6 µg/mL); in assay [31], 1.56 µM (≈ 2.16 µg/mL); in assay [32], 1.56 µM (≈ 2.16 µg/mL); in [33], 3.12 µM (≈ 4.31 µg/mL). Besides, the MIC was 1.56 µM (≈ 2.16 µg/mL) in assay [34]; 6 µM (≈ 8.29 µg/mL) in [35]; 31 µM and 50 µM in [36]; 8 µM and 12 µM in assay [37]; 25 µM (≈ 34.5 µg/mL) in assay [38]; 3 µM (≈ 4.15 µg/mL) in assay [19]. In addition, the MIC in [39], in assay [40], in assay [41] and in [42] was 6 µM (≈ 8.29 µg/mL) in each case.
In the case of `CC[C@H](C)[C@H](NC(=O)[C@H](CCCCN)NC(=O)[C@H](CC(C)C)NC(=O)[C@H](C)NC(=O)[C@H](C)NC(=O)[C@H](CCCCN)NC(=O)[C@H](CC(C)C)NC(=O)[C@H](C)NC(=O)[C@H](CCCCN)NC(=O)CNC(=O)[C@H](CC(C)C)NC(=O)[C@H](Cc1ccccc1)NC(=O)[C@H](CO)NC(=O)CNC(=O)[C@H](Cc1ccccc1)NC(=O)CN)C(=O)NCC(=O)N[C@@H](C)C(=O)N[C@@H](CC(N)=O)C(=O)N[C@H](C(=O)N[C@@H](CC(C)C)C(=O)NCC(=O)NCC(=O)N[C@@H](C)C(=O)N1CCC[C@H]1C(=O)N[C@@H](CCC(N)=O)C(=O)N[C@@H](CCC(N)=O)C(=O)O)C(C)C` [GFGSFLGKALKAALKIGANVLGGAPQQ], the MIC came out at 1.53 µM (≈ 4 µg/mL) in assay [43]; 3.06 µM (≈ 8 µg/mL) in assay [44]; 3.06 µM (≈ 8 µg/mL) in [45]; 3.06 µM (≈ 8 µg/mL) in assay [46]; 12.5 µM (≈ 32.7 µg/mL) in assay [47]; 12.2 µM (≈ 32 µg/mL) in [48]. For the same compound, the MIC in [49] is 12.2 µM (≈ 32 µg/mL); in assay [50] it was 24.5 µM (≈ 64 µg/mL); in assay [51], greater than 49 µM; in [52], 1.53 µM (≈ 4 µg/mL); in assay [53] it was 1.53 µM (≈ 4 µg/mL); in [54] it was 3.06 µM (≈ 8 µg/mL). The compound also had an MIC in assay [22] of 6 µM (≈ 15.7 µg/mL).
